The values below come from patent publication US20130309695A1, “METHODS OF DIAGNOSING ASTHMA” (UNIVERSITY OF MANITOBA, priority 2010, published 2013).

For assay [1], the system named is TNF-α-mediated PTX3 release from HASMC. Kind of assay: Effect of MAPK inhibitors on TNF-α-induced PTX3 release from HASMC (ELISA). The class given is cell-based, human. Conditions: 10 μM, 1 h pretreatment, then TNF-α 10 ng/ml for 24 h. How it is done: (§1) Confluent HASMC (passages 2-5) were growth-arrested by FBS deprivation for 48 h in Ham's F-12 medium containing 5 μg/ml human recombinant insulin, 5 μg/ml human transferrin, 5 ng/ml selenium, and antibiotics (100 U/ml penicillin and 100 μg/ml streptomycin). Cells were then stimulated in fresh FBS-free medium containing graded concentration (0.1, 1, 10, and 100 ng/ml) of human TNF-α, IL-4, PTX3 or medium alone. In some experiments, cells were pretreated for 1 h with U-0126 (10 μM), SB-203580 (10 μM), or SP600125 (50 nM) before stimulation for 24 h with TNF-α (10 ng/ml), at 10 ng/ml. Supernatants were collected at 24 and 48 h, centrifuged at 1,200 rpm for 7 min at 4° C. to remove cellular debris, and stored at −80° C. until analysis by ELISA.
(§2) Immunoreactive PTX3 within the supernatants was quantified using ELISA with matched antibodies according to basic laboratory protocols provided by the manufacturer (R&D Systems Inc., Minneapolis, Minn.). PTX3 protein was quantified in reference to serial dilutions of recombinant standards falling within the linear part of the standard curve for each specific PTX3 measured. Each data point represents readings from a minimum of four independent assays wherein each assay was performed in duplicate.
One of the major downstream pathways for TNF-α-induced cell activation is MAPKs, which play an important role in cells for inflammatory response. Growth-arrested HASMC cells were left unstimulated (medium alone) or treated with 10 ng/ml TNF-α for 24 h, with or without pretreatment for 1 h with inhibitors of JNK (SP600125 50 nM), p42/p44 ERK (U-0126, 10 μM) and p38 MAPK (SB-203580, 10 μM).
Background: ELISA stands for enzyme-linked immunosorbent assay.

The test system of assay [2] is PTX3 mRNA expression in human airway smooth muscle cells (HASMC). Kind of assay: PTX3 mRNA expression in cultured HASMC (RT-PCR / real-time RT-PCR). The class given is cell-based. As for the experimental part:
as §1
Confluent HASMC (passages 2-5) were growth-arrested for 48 h in serum-free medium as described above. Cells were then stimulated in fresh FBS-free medium containing human recombinant TNF-α (10 ng/ml), IL-4, or medium alone for 2, 6, and 24 h. Cells were harvested, and total cellular RNA was extracted using TRIzol® method (Invitrogen Life Technologies, Gaithersburg, Md.). The RNA concentration and purity were assessed with optical density measurements. […] Amplified products were analyzed by DNA gel electrophoresis in 2% agarose and visualized by ethidium bromide staining under ultraviolet illumination. […] The PTX3 level was quantified by scanning densitometry and corrected for GAPDH in the same sample. […]
Total cellular RNA extraction and reverse transcription was performed as described above. […] The amount of extracted DNA was quantified by spectrophotometry and expressed as copy number. […] For real-time quantitative PCR, each reaction contained the following: 1× LightCycler® DNA Master SYBR Green I (Roche), 25 mM MgCl2, 0.5 μM each primer, 0.07 μM TaqStart® Ab (Clontech), and 10 μl (1:10 for PTX3 and 1:80 for GAPDH) of cDNA, in a final volume of 25 μl. […]
For orientation: Real-time PCR tracks product formation cycle by cycle.

The subject of the next assay is PTX3 release from HASMC. Kind of assay: PTX3 protein release from HASMC into the supernatant (ELISA). The assay is classed as cell-based, human. Conditions: growth-arrested HASMC, 24 h, 0.1, 1, 10 ng/ml. As for the experimental part:
Confluent HASMC (passages 2-5) were growth-arrested by FBS deprivation for 48 h in Ham's F-12 medium containing 5 μg/ml human recombinant insulin, 5 μg/ml human transferrin, 5 ng/ml selenium, and antibiotics (100 U/ml penicillin and 100 μg/ml streptomycin). Cells were then stimulated in fresh FBS-free medium containing graded concentration (0.1, 1, 10, and 100 ng/ml) of human TNF-α, IL-4, PTX3 or medium alone. In some experiments, cells were pretreated for 1 h with U-0126 (10 μM), SB-203580 (10 μM), or SP600125 (50 nM) before stimulation for 24 h with TNF-α (10 ng/ml), at 10 ng/ml. […]
as §2
Assessments were made of the effects of dosage and exposure time of TNF-α on HASMC. […] For both experiments, HASMC were stimulated with 0.1, 1, 10 or 100 ng/ml TNF-α, or medium alone for 24 h after which, PTX3 was measured by ELISA.

In the case of `N#CC(=C(N)Sc1ccccc1N)C(C#N)=C(N)Sc1ccccc1N` [U-0126, 1,4-diamino-2,3-dicyano-1,4-bis(2-aminophenylthio)butadiene], the “effect on TNF-α-induced PTX3 release” value is reported as “significant inhibition” in assay [1] and “abrogate” in assay [1] (listed as U0126).
`C[S+]([O-])c1ccc(-c2nc(-c3ccncc3)c(-c3ccc(F)cc3)[nH]2)cc1` (centres unmarked) [SB-203580, 4-(4-fluorophenyl)-2-(4-methyl-sulfinylphenyl)-5-(4′-pyridyl)-1H-imidazole]: the “effect on TNF-α-induced PTX3 release” value in assay [1] is given as “no effect”.
On to TNF-α, for which, in assay [2] (10 ng/mL, 6 h, ratio to GAPDH, mean±SD of three experiments), the “fold increase of PTX3 mRNA compared with unstimulated cells” value is given as 30.93±11.25 fold. Further, the “time of peak PTX3 mRNA response” value in assay [2] (10 ng/ml, stimulated 2, 6 and 24 h, real-time RT-PCR) is reported as 6 h. For the same molecule, in the assay on PTX3 release from HASMC, the “PTX3 release from HASMC” value was “induced the release of PTX3 in a dose-dependent manner”.

B1: IL-4: cytokine used to stimulate HASMC (protein, UniProt P05112 25-153, looked up)
Interleukin-4: HKCDITLQEIIKTLNSLTEQKTLCTELTVTDIFAASKNTTEKETFCRAATVLRQFYSHHEKDTRCLGATAQQFHRHKQLIRFLKRLDRNLWGLAGLNSCPVKEANQSTLENFLERLKTIMREKYSKCSS
On to B1, for which, in assay [2] (6 h, data not shown), the “effect on PTX3 mRNA expression” value is given as “no significant effect”. Besides, in the assay on PTX3 release from HASMC, the “PTX3 release from HASMC” value is “No significant PTX3 release”.
